Structures are written as SMILES.

Results on 35 compounds are retold here after US11180483B2, “Substituted reverse pyrimidine Bmi-1 inhibitors” (PTC Therapeutics, Inc., priority 2012, dated 2021).

The subject of the assay is Bmi-1. Kind of assay: Sandwich ELISA Assay (Bmi-1 ELISA) in HT-1080 cells. It counts as cell-based. The procedure, abridged:
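HT-1080 cells exposed to compound in 0.5% final DMSO for 40-48 h at 37 °C, then lysed. Bmi-1 was quantified by sandwich ELISA: mouse monoclonal capture, rabbit anti-Bmi-1 detection, HRP anti-rabbit and TMB. Read at OD450 (OD570 reference) against a recombinant GST-Bmi-1 standard curve (0-8000 pg/mL).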
Background: An ELISA detects its analyte on a solid surface through an enzyme-linked reagent.
As a reminder, the EC50 is the concentration giving half of the maximal effect. `CCc1nc2c(F)cc(F)cc2n1-c1nc(N)c(F)c(Nc2ccc(OC(F)F)c(F)c2)n1` [Cpd 130, N-[4-(difluoromethoxy)-3-fluorophenyl]-2-(2-ethyl-4,6-difluoro-1H-benzimidazol-1-yl)-5-fluoropyrimidine-4,6-diamine]: the EC50 is 10 to 100 nM.
Regarding `Cc1nc2c(F)cc(F)cc2n1-c1nc(N)c(F)c(Nc2ccc(OC(F)F)cc2)n1` [Cpd 131, N-[4-(difluoromethoxy)phenyl]-2-(4,6-difluoro-2-methyl-1H-benzimidazol-1-yl)-5-fluoropyrimidine-4,6-diamine], the EC50 is 10 to 100 nM.
In turn, `CCc1nc2c(F)cc(F)cc2n1-c1nc(N)c(F)c(Nc2ccc(OC(F)F)cc2)n1` [Cpd 132, N-[4-(difluoromethoxy)phenyl]-2-(2-ethyl-4,6-difluoro-1H-benzimidazol-1-yl)-5-fluoropyrimidine-4,6-diamine] yielded an EC50 of 10 to 100 nM.
In turn, `Cc1nc2cc(F)c(F)cc2n1-c1nc(N)c(F)c(Nc2ccc(OC(F)F)cc2)n1` [Cpd 133, N-[4-(difluoromethoxy)phenyl]-2-(5,6-difluoro-2-methyl-1H-benzimidazol-1-yl)-5-fluoropyrimidine-4,6-diamine] gave an EC50 of 10 to 100 nM.
In the case of `Cc1nc2c(F)cccc2n1-c1nc(N)c(F)c(Nc2ccc(C(F)(F)F)cc2)n1` [Cpd 134, 5-fluoro-2-(4-fluoro-2-methyl-1H-benzimidazol-1-yl)-N-[4-(trifluoromethyl)phenyl]pyrimidine-4,6-diamine] it was 10 to 100 nM.
In the case of `Cc1nc2c(F)cccc2n1-c1nc(N)c(F)c(Nc2ccc(OC(F)F)cc2)n1` [Cpd 135, N-[4-(difluoromethoxy)phenyl]-5-fluoro-2-(4-fluoro-2-methyl-1H-benzimidazol-1-yl)pyrimidine-4,6-diamine] it was 10 to 100 nM.
The value for `Cc1nc2c(F)cccc2n1-c1nc(N)c(F)c(Nc2ccc(OC(F)F)c(F)c2)n1` [Cpd 136, N-[4-(difluoromethoxy)-3-fluorophenyl]-5-fluoro-2-(4-fluoro-2-methyl-1H-benzimidazol-1-yl)pyrimidine-4,6-diamine] was 10 to 100 nM; that for `Cc1nc2ncccc2n1-c1nc(N)c(F)c(Nc2ccc(C(F)(F)F)cc2)n1` [Cpd 137, 5-fluoro-2-(2-methyl-1H-imidazo[4,5-b]pyridin-1-yl)-N-[4-(trifluoromethyl]phenyl]pyrimidine-4,6-diamine] was 10 to 100 nM; that for `Cc1nc2ncccc2n1-c1nc(N)c(F)c(Nc2ccc(OC(F)F)cc2)n1` [Cpd 138, N-[4-(difluoromethoxy)phenyl]-5-fluoro-2-(2-methyl-1H-imidazo[4,5-b]pyridin-1-yl)pyrimidine-4,6-diamine] was 10 to 100 nM.
`Cc1nc2ncccc2n1-c1nc(N)c(F)c(Nc2ccc(OC(F)F)c(F)c2)n1` [Cpd 139, N-[4-(difluoromethoxy)-3-fluorophenyl]-5-fluoro-2-(2-methyl-1H-imidazo[4,5-b]pyridin-1-yl)pyrimidine-4,6-diamine] displayed an EC50 of 100 to 3000 nM.
The compound `Nc1nc(-n2c(C3CC3)nc3c(F)cccc32)nc(Nc2ccc(C(F)(F)F)cc2)c1F` [Cpd 140, 2-(2-cyclopropyl-4-fluoro-1H-benzimidazol-1-yl)-5-fluoro-N-[4-(trifluoromethyl]phenyl]pyrimidine-4,6-diamine] came in with an EC50 of 10 to 100 nM.
The compound `Nc1nc(-n2c(C3CC3)nc3c(F)cccc32)nc(Nc2ccc(OC(F)F)cc2)c1F` [Cpd 141, 2-(2-cyclopropyl-4-fluoro-1H-benzimidazol-1-yl)-N-[4-(difluoromethoxy)phenyl]-5-fluoropyrimidine-4,6-diamine] registered an EC50 of 10 to 100 nM.
`Nc1nc(-n2c(C3CC3)nc3c(F)cccc32)nc(Nc2ccc(OC(F)F)c(F)c2)c1F` [Cpd 142, 2-(2-cyclopropyl-4-fluoro-1H-benzimidazol-1-yl)-N-[4-(difluoromethoxy)-3-fluorophenyl]-5-fluoropyrimidine-4,6-diamine]: the 50% effective concentration (EC50) was 10 to 100 nM.
The value for `CSc1ccc(Nc2cc(N)nc(-n3c(C)nc4ccccc43)n2)cc1` [Cpd 146, 2-(2-methyl-1H-benzimidazol-1-yl)-N-[4-(methylsulfanyl]phenyl]pyrimidine-4,6-diamine] was 10 to 100 nM.
As to `CC1(c2nc3ccccc3n2-c2nc(N)cc(Nc3ccc(C(F)(F)F)cc3)n2)CC1` [Cpd 147, 2-[2-(1-methylcyclopropyl)-1H-benzimidazol-1-yl]-N-[4-(trifluoromethyl]phenyl]pyrimidine-4,6-diamine], the EC50 was 100 to 3000 nM.
In the case of `CC1(c2nc3ccccc3n2-c2nc(N)cc(Nc3ccc(OC(F)F)cc3)n2)CC1` [Cpd 148, N-[4-(difluoromethoxy)phenyl]-2-[2-(1-methylcyclopropyl)-1H-benzimidazol-1-yl]pyrimidine-4,6-diamine] it was 100 to 3000 nM; in that of `Cc1nn2ccccc2c1-c1nc(N)cc(Nc2ccc(C(F)(F)F)cc2)n1` [Cpd 154, 2-(2-methylpyrazolo[1,5-a]pyridin-3-yl)-N-[4-(trifluoromethyl]phenyl]pyrimidine-4,6-diamine], 100 to 3000 nM.
The value for `Nc1nc(-n2c(C3CC3)nc3ncc(F)cc32)nc(Nc2ccc(OC(F)F)cc2)c1F` [Cpd 155, 2-(2-cyclopropyl-6-fluoro-1H-imidazo[4,5-b]pyridin-1-yl)-N-[4-(difluoromethoxy)phenyl]-5-fluoropyrimidine-4,6-diamine] was 10 to 100 nM; that for `CCc1nc2ccccc2n1-c1nc(N)cc(Nc2ccc(OC(F)F)cc2)n1` [Cpd 156, N-[4-(difluoromethoxy)phenyl]-2-(2-ethyl-1H-benzimidazol-1-yl)pyrimidine-4,6-diamine] was 1 to 10 nM.
Regarding `CCc1nc2ccccc2n1-c1nc(N)cc(Nc2ccc(OC(F)F)c(F)c2)n1` [Cpd 157, N-[4-(difluoromethoxy)-3-fluorophenyl]-2-(2-ethyl-1H-benzimidazol-1-yl)pyrimidine-4,6-diamine], the EC50 was in the range of 10 to 100 nM.
The value for `Cc1nc2cc(Cl)ccc2n1-c1nc(N)c(F)c(Nc2ccc(C(F)(F)F)cc2)n1` [Cpd 158, 2-(5-chloro-2-methyl-1H-benzimidazol-1-yl)-5-fluoro-N-[4-(trifluoromethyl)phenyl]pyrimidine-4,6-diamine] was 100 to 3000 nM; that for `Cc1nc2cc(Cl)ccc2n1-c1nc(N)c(F)c(Nc2ccc(OC(F)F)cc2)n1` [Cpd 159, 2-(5-chloro-2-methyl-1H-benzimidazol-1-yl)-N-[4-(difluoromethoxy)phenyl]-5-fluoropyrimidine-4,6-diamine] was 100 to 3000 nM; that for `Cc1nc2ccc(Cl)cc2n1-c1nc(N)c(F)c(Nc2ccc(C(F)(F)F)cc2)n1` [Cpd 160, 2-(6-chloro-2-methyl-1H-benzimidazol-1-yl)-5-fluoro-N-[4-(trifluoromethyl)phenyl]pyrimidine-4,6-diamine] was 10 to 100 nM.
In the case of `Cc1nc2ccc(Cl)cc2n1-c1nc(N)c(F)c(Nc2ccc(OC(F)F)cc2)n1` [Cpd 161, 2-(6-chloro-2-methyl-1H-benzimidazol-1-yl)-N-[4-(difluoromethoxy)phenyl]-5-fluoropyrimidine-4,6-diamine] it was 10 to 100 nM.
Take `CCc1nc2cc(F)ccc2n1-c1nc(N)c(F)c(Nc2ccc(C(F)(F)F)cc2)n1` [Cpd 162, 2-(2-ethyl-5-fluoro-1H-benzimidazol-1-yl)-5-fluoro-N-[4-(trifluoromethyl)phenyl]pyrimidine-4,6-diamine]: the EC50 is 10 to 100 nM.
The value for `CCc1nc2cc(F)ccc2n1-c1nc(N)c(F)c(Nc2ccc(OC(F)F)cc2)n1` [Cpd 163, N-[4-(difluoromethoxy)phenyl]-2-(2-ethyl-5-fluoro-1H-benzimidazol-1-yl)-5-fluoropyrimidine-4,6-diamine] was 10 to 100 nM; that for `CCc1nc2ccc(F)cc2n1-c1nc(N)c(F)c(Nc2ccc(C(F)(F)F)cc2)n1` [Cpd 164, 2-(2-ethyl-6-fluoro-1H-benzimidazol-1-yl)-5-fluoro-N-[4-(trifluoromethyl)phenyl]pyrimidine-4,6-diamine] was 10 to 100 nM; that for `CCc1nc2ccc(F)cc2n1-c1nc(N)c(F)c(Nc2ccc(OC(F)F)cc2)n1` [Cpd 165, N-[4-(difluoromethoxy)phenyl]-2-(2-ethyl-6-fluoro-1H-benzimidazol-1-yl)-5-fluoropyrimidine-4,6-diamine] was 1 to 10 nM.
In the case of `Cc1nc2ccccc2n1-c1nc(N)c(Cl)c(Nc2ccc(C(F)(F)F)cc2)n1` [Cpd 166, 5-chloro-2-(2-methyl-1H-benzimidazol-1-yl)-N-[4-(trifluoromethyl)phenyl]pyrimidine-4,6-diamine] it was 100 to 3000 nM; in that of `CCc1nc2ccccc2n1-c1nc(N)c(Cl)c(Nc2ccc(C(F)(F)F)cc2)n1` [Cpd 167, 5-chloro-2-(2-ethyl-1H-benzimidazol-1-yl)-N-[4-(trifluoromethyl)phenyl]pyrimidine-4,6-diamine], 10 to 100 nM.
The value for `CCc1nc2ccccc2n1-c1nc(N)c(Cl)c(Nc2ccc(OC(F)F)cc2)n1` [Cpd 168, 5-chloro-N-[4-(difluoromethoxy)phenyl]-2-(2-ethyl-1H-benzimidazol-1-yl)pyrimidine-4,6-diamine] was 100 to 3000 nM; that for `Cc1nc2ccccn2c1-c1nc(N)c(F)c(Nc2ccc(C(F)(F)F)cc2)n1` [Cpd 169, 5-fluoro-2-(2-methylimidazo[1,2-a]pyridin-3-yl)-N-[4-(trifluoromethyl)phenyl]pyrimidine-4,6-diamine] was 100 to 3000 nM; that for `Cc1nc2ccccn2c1-c1nc(N)c(F)c(Nc2ccc(OC(F)F)cc2)n1` [Cpd 170, N-[4-(difluoromethoxy)phenyl]-5-fluoro-2-(2-methylimidazo[1,2-a]pyridin-3-yl)pyrimidine-4,6-diamine] was 100 to 3000 nM.
The compound `Cc1nc2ccccn2c1-c1nc(N)c(F)c(Nc2ccc(OC(F)F)c(F)c2)n1` [Cpd 171, N-[4-(difluoromethoxy)-3-fluorophenyl]-5-fluoro-2-(2-methylimidazo[1,2-a]pyridin-3-yl)pyrimidine-4,6-diamine] returned an EC50 of 100 to 3000 nM.
The value for `Cc1c(N)nc(-n2c(C)nc3ccccc32)nc1Nc1ccc(C(F)(F)F)cc1` [Cpd 172, 5-methyl-2-(2-methyl-1H-benzimidazol-1-yl)-N-[4-(trifluoromethyl)phenyl]pyrimidine-4,6-diamine] was 100 to 3000 nM.
